Measurements: patent US9987286B2, “Compositions and methods for the treatment of addiction, psychiatric disorders, and neurodegenerative disease” (Embera NeuroTherapeutics, Inc., priority 2010, dated 2018)

Experiments:
[1] = system: food-maintained responding in rats; assay: Food-maintained responding in rats, metyrapol (Example 5); format: in vivo, Adult male Wistar rats; conditions: metyrapol 25, 50, 100, 150 mg/kg ip
Method: (§1) We conducted the following experiment to explore the possibility that metyrapol would decrease cocaine self-administration in an animal model. Adult male Wistar rats were trained to respond under a 2-hour multiple, alternating schedule of food reinforcement and cocaine self-administration (fixed-ratio 4) during alternating 15-minute periods. Prior to testing, the rats were exposed to multiple saline substitution and food extinction probes. On test days, rats were pretreated 30 minutes prior to the start of the behavioral session with metyrapol (25, 50, 100, and 150 mg/kg, ip.) or vehicle. Subjects were initially trained and tested with 0.25 mg/kg/infusion of cocaine and, subsequently, with 0.125 and 0.5 mg/kg/infusion.

[2] = system: cocaine self-administration in rats; assay: Cocaine self-administration in rats, metyrapol (Example 5); format: in vivo, Adult male Wistar rats; conditions: metyrapol 25, 50, 100, 150 mg/kg ip 30 minutes before session; cocaine 0.125, 0.25 and 0.5 mg/kg/infusion
Method: as §1

[3] = system: ACTH; assay: Plasma ACTH radioimmunoassay (Example 1); format: in vivo, Male Wistar rats; conditions: rats before adrenalectomy; any of the doses
Excerpt: (§2) Blood was collected via the implanted catheters at the end of the behavioral test sessions for the measurement of plasma CORT and […] (ACTH). The samples were kept on ice until centrifuged in a refrigerated centrifuge and the plasma collected and frozen until assayed. Plasma CORT and ACTH (ng/ml) were subsequently determined by radioimmunoassay.

[4] = system: cocaine self-administration in rats; assay: Cocaine self-administration before and after adrenalectomy, alternating schedule of cocaine and food reinforcement (Example 1); format: in vivo, Male Wistar rats; conditions: rats after bilateral adrenalectomy
Method: Male Wistar rats were housed in an AALAC-approved animal care facility and maintained at 85-90% of their free-feeding body weights. These rats were on a reversed 12-hour light, 12-hour dark cycle from the beginning of the experimental procedures.
A chronic indwelling jugular catheter (0.012 in i.d.×0.025 in o.d., silicone tubing) was implanted in each rat under pentobarbital anesthesia (50 mg/kg ip) with methyl atropine nitrate pretreatment (10 mg/kg ip). The animals were injected with sterile penicillin G procaine suspension (75,000 units, im) immediately before surgery and allowed 5-7 days to recover.
Animals were anesthetized with pentobarbital (50 mg/kg ip) with methyl atropine nitrate pretreatment (10 mg/kg ip). The adrenal glands were located through an incision and removed. The animals were injected with sterile penicillin G procaine suspension (75,000 units, im) and allowed to recover from surgery for 7 days. After ADX, the rats received drinking water containing 0.9% saline and 1.0% sucrose. Animals in the SHAM group received the same surgery except that the adrenal glands were not removed. They continued to receive tap water to drink.
Sound-attenuating operant conditioning chambers (Med-Associates, Inc.) were equipped with two response levers and a stimulus light located directly above each lever. A food pellet dispenser was located between the levers. […]

[5] = system: cocaine self-administration in rats; assay: Ongoing cocaine self-administration in rats (earlier experiments); format: in vivo, rat; conditions: pretreatment with the single drug
Excerpt: We then reduced the dose by one-half until we found a dose of each drug that no longer affected cocaine self-administration or any other observable behaviors (i.e., an ineffective dose). When we then combined the ineffective doses of the two drugs, cocaine self-administration was reduced. […] Thus, we concluded that combining drugs that affect the HPA axis through different mechanisms can produce an additive effect on cocaine reward. Furthermore, by combining these drugs at concentrations that have no effect when the drugs are administered alone, we can minimize the potential toxic side effects (e.g., excessive decreases in plasma cortisol with metyrapone and the abuse liability of benzodiazepines) that may be associated with these compounds. Accordingly, the compositions of the present invention may include combinations of therapeutic agents, one or both of which are present at a dosage level lower than that which would be required to achieve an effect had the agent been administered alone; the dosages may be additive.

[6] = system: plasma CORT; assay: Plasma CORT radioimmunoassay (Example 1); format: in vivo, Male Wistar rats; conditions: rats before adrenalectomy; any of the doses
Excerpt: as §2

[7] = system: plasma corticosterone; assay: Plasma corticosterone in rats (earlier experiments); format: in vivo, rat; conditions: pretreatment with metyrapone
[8] = system: smoking cessation; conditions: cited from earlier work
[9] = system: nicotine self-administration in rats; assay: Intravenous nicotine self-administration, fixed-ratio schedule (Example 3); format: in vivo, Wistar-derived male rats; conditions: FR1-TO-20 s; varenicline 1 mg/kg subcutaneously; reduced from 15.4±1.0
Method: Wistar-derived male rats (250-300 g) were purchased from Harlan Laboratories (Livermore, Calif.), housed in groups of two, and maintained in a temperature-controlled environment on a 12 h:12 h light cycle. Before testing, animals were provided free access to food and water during a one-week habituation period, and were handled daily for several days to desensitize them to handling stress. Each rat included in the data analysis received all treatments in order to obtain reliable estimates of drug effects and decrease the impact of inter-animal variability.
Varenicline-HCl (Ontario Chemicals), at 1 mg/kg (expressed as free base), was used as a positive control and administered subcutaneously. Nicotine hydrogen tartrate (Sigma Aldrich) was dissolved in isotonic saline at 0.3 mg/mL (expressed as free base), adjusted to pH 7.0, and diluted to deliver 0.03 mg/kg/infusion. All test compounds were administered 30 minutes prior to nicotine self-administration sessions in a volume of 1 mL/kg.
Food training and nicotine self-administration took place in 8 standard COULBOURN® operant conditioning chambers. Each chamber was housed in a sound-attenuating chamber. Operant chambers were equipped with two levers mounted 2 cm above the floor and a cue light mounted 2 cm above the right lever (active lever) on the back wall of the chamber. […]

CC(C)(c1cccnc1)C(O)c1cccnc1 (stereo not shown) [metyrapol]
food-maintained responding [1]: not significantly affected except at the highest doses | cocaine self-administration [2]: dose dependently decreased

CC(C)(C(=O)c1cccnc1)c1cccnc1 [metyrapone]
ACTH (plasma) [3]: not changed | blocking cocaine self-administration following adrenalectomy compared to pre-adrenalectomy values [4]: as effective, and possibly even more effective | ongoing cocaine self-administration [5]: significant dose-related decreases | Corticosterone (plasma) [6]: not changed | plasma corticosterone [7]: significant dose-related decreases

c1cnc2cc3c(cc2n1)[C@@H]1CNC[C@H]3C1 [varenicline]
efficacy for smoking cessation compared to either bupropion or nicotine replacement therapy ([8]; literature reports): increased efficacy | quit rates after one year ([8]; smoking cessation, Nides et al. 2006): 14% | nicotine infusions during the 1-hour self-administration session [9]: 7.7±1.2 infusions
